The record followed here is patent publication US20250236629A1, “MEDIUM- OR MACRO-CYCLIC BENZYL-SUBSTITUTED HETEROCYCLE DERIVATIVES AND RELATED USES” (CENTESSA PHARMACEUTICALS (UK) LIMITED, priority 2022, published 2025).

Where two headings read alike, the source gives them in different places.

The target of data set [1] is T1, human orexin type 2 receptor (hOX2R) (Homo sapiens, UniProt O43614).
T1 construct: the Orexin receptor cDNA was inserted into pcDNA3.1(+) plasmid vector; expressed in transfected cells
T1 sequence (O43614 1-444): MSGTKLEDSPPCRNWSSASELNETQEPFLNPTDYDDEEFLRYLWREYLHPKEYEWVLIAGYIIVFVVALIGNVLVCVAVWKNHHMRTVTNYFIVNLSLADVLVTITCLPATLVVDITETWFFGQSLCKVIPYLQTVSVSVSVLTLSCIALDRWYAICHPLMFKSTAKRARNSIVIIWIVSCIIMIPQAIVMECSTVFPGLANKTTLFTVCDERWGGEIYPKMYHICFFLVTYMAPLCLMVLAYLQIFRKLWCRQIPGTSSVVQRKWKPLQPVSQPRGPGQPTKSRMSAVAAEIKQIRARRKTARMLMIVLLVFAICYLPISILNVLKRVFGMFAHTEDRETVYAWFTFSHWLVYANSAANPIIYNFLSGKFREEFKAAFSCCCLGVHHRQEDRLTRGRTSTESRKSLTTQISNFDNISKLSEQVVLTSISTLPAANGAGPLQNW
The data set is described as follows: Orexin type 2 receptor agonist activity, intracellular Ca2+ (FLIPR TETRA) in CHO cells. The data set is classed as cell-based. The following applies: CHO cells expressing hOX2R; Ca2+ fluorescence area; 100% = 10 nM human orexin A; read-out: hOx2 pEC50 (converted). On the procedure:
Stable cell line generation. Obtainment of cells stably expressing either human orexin type 2 or human orexin type 1 receptor: to obtain a stable cell line the Orexin receptor cDNA was inserted into pcDNA3.1(+) plasmid vector and clones identified by G418 drug resistance selection. […] A single clone for OX2R—CHO and OX1R—CHO were grown in bulk and frozen to generate a cell bank for routine screening.
Measurement of orexin type 2 receptor agonist activity. Chinese hamster ovary (CHO) cells expressing human orexin type 2 receptor (hOX2R) or human orexin type 1 receptor (hOX1R) were seeded in each well of 384 well black clear bottom plates (BD Flacon) at 10,000 cells per well and cultured for 24 hr in an Ham's F12 (Gibco) medium containing 10% fetal calf serum (Sigma Aldrich) under the conditions of 37° C., 5% CO2. After removal of the medium, 50 μl of assay buffer 1 (0.1% bovine serum albumin (Sigma Aldrich), 20 mM HEPES (Molecular Dimensions), […] probenecid (Sigma Aldrich), 1× Calcium 5 dye (Molecular Devices) in Hank's balanced salt solution (Invitrogen)) was added, and the cells were incubated for 60 min under the conditions of 37° C., 5% CO2. A test compound was dissolved in dimethyl sulfoxide (Sigma Aldrich) to 10 mM, and then diluted with assay buffer 2 (20 mM HEPES, Hank's balanced salt solution, 0.1% bovine serum albumin). For the reaction, a test compound solution (10 μl) was added using Fluorescent Imaging Plate Reader TETRA (FLIPR TETRA: manufactured by Molecular Devices), a fluorescence value (excitation wavelength 488 nm, measurement wavelength 570 nm) of each well was measured every one second for 2 min, and the agonist activity was determined using the area of the fluorescence value as an indicator of intracellular Ca^2+ concentration. The agonist activity of the test compound was calculated assuming that the fluorescence value of the well added with only the dilution buffer was 0% and the fluorescence value of the well added with 10 nM human orexin A (Tocris) buffer was 100%.
Values of hOx2 pEC50 in Table B are presented in ranges, in which 6.0≤“+”<7.0, 7.0≤“++”<8.0, 8.0≤“+++”<9.0, and 9.0≤“++++”<10.4.

The test system of data set [2] is wild type (WT) colony mates. As to the kind of experiment: Wake-promoting efficacy of oral small molecules, piezoelectric sleep/wake monitoring, WT mice. It counts as in vivo, mouse. The following applies: dosed 5 h after light onset. The procedure:
(§1) Wake-promoting efficacy of oral small molecules. Wake-promoting efficacy was evaluated in the […]) mouse model of NT1 and wild type (WT) colony mates. Mice were monitored in home cages using piezoelectric sensors for rapid, non-invasive classification of sleep and wakefulness by unsupervised machine learning on physiologically relevant readouts, such as body movement and breath rate. Piezoelectric detection is highly correlated with conventional time-intensive electroencephalogram/electromyography measures of sleep/wake states in both WT and NT1 mice. In a counterbalanced, repeated-measures design, mice were orally dosed at 5 h after light onset with test articles and vehicle.

The test system of data set [3] is B6.Cg-Tg(HCRT-MJD)1Stak/J (Atax) mouse model of NT1. The data set is described as follows: Wake-promoting efficacy of oral small molecules, piezoelectric sleep/wake monitoring, Atax mice. The data set is classed as in vivo. Conditions: dosed 5 h after light onset. The procedure: as §1
The conditions of data set [4]: DCM.

As for `O=C1CCOc2c(F)cc(F)cc2-c2cccc(c2F)C[C@H]2[C@@H](NS(=O)(=O)CF)[C@@H](F)CCN12` [Example 41, 1-fluoro-N-((4^2S,4^3R,4^4S)-1^3,1^5,2^2,4^4-tetrafluoro-5-oxo-8-oxa-4 (2,1)-piperidina-1 (1,2),2 (1,3)-dibenzenacyclooctaphane-4^3-yl)methanesulfonamide], the EC50 in data set [1] was 0.0398 to 1 nM. Moreover, the “Wake % time 1 h post dose (increase from vehicle)” value in data set [2] (oral dose 10 mg/kg) was found to be 28.0%; in data set [2] (oral dose 30 mg/kg) it was 31.5%; in data set [3] (oral dose 1 mg/kg), 32.4%; in data set [3] (oral dose 3 mg/kg), 38.2%.

With `O=C1CCOc2c(F)cccc2-c2cccc(c2F)C[C@H]2[C@@H](NS(=O)(=O)C3(F)CC3)[C@@H](F)CCN12` [Example 44, 1-fluoro-N-((4^2S,4^3R,4^4S)-1^3,2^2,4^4-trifluoro-5-oxo-8-oxa-4 (2,1)-piperidina-1 (1,2),2 (1,3)-dibenzenacyclooctaphane-4^3-yl)cyclopropane-1-sulfonamide], the EC50 in data set [1] is 0.0398 to 1 nM. The molecule also yielded a ring closure, yield after HPLC in data set [4] (from O=C(O)CCOc1c(F)cccc1-c1cccc(C[C@@H]2NCC[C@H](F)[C@@H]2NS(=O)(=O)C2(F)CC2)c1F, amide bond, 12-membered ring, DMC (2-chloro-1,3-dimethylimidazolinium chloride)/DIEA, 0.165 mM, 25.0 °C, 4.0 h) of 42%.

Regarding `CNCCOc1ccccc1-c1cccc(C[C@@H]2NCC3(CC3)[C@@H]2NS(=O)(=O)C(F)F)c1F`, in data set [4] (the molecule shown is the open-chain precursor, other bond, 13-membered ring, triphosgene/TEA, then K2CO3, then MeCN, 0.2 mM, 60.0 °C), the ring closure, yield after HPLC worked out at 16%.

Turning to `O=C1CCOc2c(F)cccc2-c2cccc(c2F)C[C@H]2[C@@H](NS(=O)(=O)CF)[C@@H](F)CCN12` [Example 42, 1-fluoro-N-((4^2S,4^3R,4^4S)-1^3,2^2,4^4-trifluoro-5-oxo-8-oxa-4 (2,1)-piperidina-1 (1,2),2 (1,3)-dibenzenacyclooctaphane-4^3-yl)methanesulfonamide], the EC50 in data set [1] is 0.0398 to 1 nM. In addition, the “Wake % time 1 h post dose (increase from vehicle)” value in data set [2] (oral dose 3 mg/kg) came to 17.1%; in data set [2] (oral dose 10 mg/kg), 22.8%; in data set [2] (oral dose 30 mg/kg), 37.7%; in data set [3] (oral dose 1 mg/kg), 33.7%; in data set [3] (oral dose 3 mg/kg) it was 34.2%.

As for `O=C1CCOc2c(F)cccc2-c2cccc(c2F)C[C@H]2[C@@H](NS(=O)(=O)C3(F)CC3)CCCN12` [Example 48, N-((4^2S,4^3S)-13,22-difluoro-5-oxo-8-oxa-4 (2,1)-piperidina-1 (1,2),2 (1,3)-dibenzenacyclooctaphane-4^3-yl)-1-fluorocyclopropane-1-sulfonamide], the EC50 in data set [1] was 0.0398 to 1 nM. Moreover, the “Wake % time 1 h post dose (increase from vehicle)” value is 18.6% in data set [2] (oral dose 3 mg/kg); 34.8% in data set [2] (oral dose 10 mg/kg); 44.4% in data set [3] (oral dose 0.3 mg/kg); 40.5% in data set [3] (oral dose 1 mg/kg); 48.0% in data set [3] (oral dose 3 mg/kg).

For the molecule `CN1CCOc2ccccc2-c2cccc(c2F)C[C@H]2[C@@H](NS(=O)(=O)CF)CCCN2C1=O` [Example 32, 1-fluoro-N-((4^2S,4^3S)-2^2-fluoro-6-methyl-5-oxo-9-oxa-6-aza-4(2,1)-piperidina-1(1,2),2(1,3)-dibenzenacyclononaphane-4^3-yl)methanesulfonamide], the EC50 in data set [1] was 10 to 100 nM.

For `O=C1CCOc2c(F)cccc2-c2cccc(c2)C[C@H]2[C@@H](NS(=O)(=O)C(F)F)CCCN12` [Example 24, 1,1-difluoro-N-((4^2S,4^3S)-1^3-fluoro-5-oxo-8-oxa-4(2,1)-piperidina-1(1,2),2(1,3)-dibenzenacyclooctaphane-4^3-yl)methanesulfonamide], the EC50 in data set [1] was 1 to 10 nM.

`O=C1CCOc2ccccc2-c2cccc(c2)C[C@H]2[C@@H](NS(=O)(=O)C3(F)CC3)CCCN12` [Example 50, 1-fluoro-N-((4^2S,4^3S)-5-oxo-8-oxa-4 (2,1)-piperidina-1 (1,2),2 (1,3)-dibenzenacyclooctaphane-4^3-yl)cyclopropane-1-sulfonamide]: the EC50 in data set [1] was 0.0398 to 1 nM.

For `O=C1CCOc2c(F)cccc2-c2cccc(c2)C[C@H]2[C@@H](NS(=O)(=O)C3(F)CC3)[C@@H](F)CCN12` [Example 46, N-((4^2S,4^3R,4^4S)-1^3,4^4-difluoro-5-oxo-8-oxa-4 (2,1)-piperidina-1 (1,2),2 (1,3)-dibenzenacyclooctaphane-4^3-yl)-1-fluorocyclopropane-1-sulfonamide], the EC50 in data set [1] is 0.0398 to 1 nM.

`CN1CCOc2c(F)cccc2-c2cccc(c2)C[C@H]2[C@@H](NS(=O)(=O)C(F)F)[C@@H](F)CN2C1=O` [Example 20, N-((4^2S,4^3R,4^4S)-1^3,4^4-difluoro-6-methyl-5-oxo-9-oxa-6-aza-4(2,1)-pyrrolidina-1(1,2),2(1,3)-dibenzenacyclononaphane-4^3-yl)-1,1-difluoromethanesulfonamide]: the EC50 in data set [1] is 1 to 10 nM.

Turning to `CN1CCOc2c(F)cc(F)cc2-c2cccc(c2)C[C@H]2[C@@H](NS(=O)(=O)C(F)F)C3(CC3)CN2C1=O` [Example 31, N-((2′S,3′S)-3′,5′-difluoro-6′-methyl-5′-oxospiro[cyclopropane-1,4′-9-oxa-6-aza-4(2,1)-pyrrolidina-1(1,2),2(1,3)-dibenzenacyclononaphan]-3′-yl)-1,1-difluoromethanesulfonamide], in data set [1], the EC50 was 10 to 100 nM.

Regarding `CCS(=O)(=O)N[C@H]1[C@@H](F)CN2C(=O)CCOc3ccccc3-c3cccc(c3F)C[C@@H]12` [Example 29, N-((4^2S,4^3R,4^4S)-2^2,4^4-difluoro-5-oxo-8-oxa-4(2,1)-pyrrolidina-1(1,2),2(1,3)-dibenzenacyclooctaphane-4^3-yl)ethanesulfonamide], the EC50 in data set [1] is 1 to 10 nM.

For `CN1CCOc2c(F)cccc2-c2cccc(c2F)C[C@H]2[C@@H](NS(=O)(=O)CF)[C@@H](F)CN2C1=O` [Example 12, 1-fluoro-N-((4^2S,4^3R,4^4S)-1^3,2^2,4^4-trifluoro-6-methyl-5-oxo-9-oxa-6-aza-4(2,1)-pyrrolidina-1(1,2),2(1,3)-dibenzenacyclononaphane-4^3-yl)methanesulfonamide], the EC50 in data set [1] was 1 to 10 nM.

Take `CC(C)S(=O)(=O)N[C@H]1[C@@H](F)CN2C(=O)N(C)CCOc3ccccc3-c3cccc(c3F)C[C@@H]12` [Example 35, N-((4^2S,4^3R,4^4S)-2^2,4^4-difluoro-6-methyl-5-oxo-9-oxa-6-aza-4(2,1)-pyrrolidina-1(1,2),2(1,3)-dibenzenacyclononaphane-4^3-yl)propane-2-sulfonamide]: the EC50 in data set [1] was 1 to 10 nM.

Take `CN1CCOc2c(F)cc(F)cc2-c2cccc(c2F)C[C@H]2[C@@H](NS(=O)(=O)C(F)F)C3(CC3)CN2C1=O` [Example 39, 1,1-difluoro-N-((2′S,3′S)-2′,3′,5′-trifluoro-6′-methyl-5′-oxospiro[cyclopropane-1,4′-9-oxa-6-aza-4(2,1)-pyrrolidina-1(1,2),2(1,3)-dibenzenacyclononaphan]-3′-yl)methanesulfonamide]: in data set [1], the EC50 was 1 to 10 nM.
